Source: the supplement of paper PMC10307832

Columns and labels:
Assay in all cases: relative viability (nuclei count vs DMSO), 5 days (fraction); higher = more cells survive
[1] = compound: C1=CC=C2C(=C1)N=C(S2)C(C#N)C3=NC(=NC=C3)NCCC4=CN=CC=C4 + Nc1nc2[nH]cc(CCc3ccc(C(=O)N[C@@H](CCC(=O)O)C(=O)O)cc3)c2c(=O)[nH]1 [Pemetrexed] (partner 0.2 µM)
Summary of the method: (§1)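 A single step with final 0.05% Triton X-100, 1% formaldehyde and 1 ug/ml Hoechst fixed the cells and stained nuclei 5 days after treatment. Lung cancer cell lines in 1536-well plates had been treated by pin tool the day after seeding with one drug alone or a fixed anchor-drug dose plus five library-drug doses (not always all listed) in √10 steps, and nuclei were counted on 4× images. Relative viability is the ratio of nuclei in treated wells to nuclei in vehicle wells, taken as the median of duplicate plates.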

NVP-TAE684 + Palbociclib = compound: COc1cc(N2CCC(N3CCN(C)CC3)CC2)ccc1Nc1ncc(Cl)c(Nc2ccccc2S(=O)(=O)C(C)C)n1 [NVP-TAE684] + CC(=O)c1c(C)c2cnc(Nc3ccc(N4CCNCC4)cn3)nc2n(C2CCCC2)c1=O [Palbociclib] (partner 0.5 µM)
Summary of the method: as §1

Vandetanib + Bortezomib = compound: COc1cc2/c(=N/c3ccc(Br)cc3F)nc[nH]c2cc1OCC1CCN(C)CC1 [Vandetanib] + CC(C)C[C@H](NC(=O)[C@H](Cc1ccccc1)NC(=O)c1cnccn1)B(O)O [Bortezomib] (partner 0.002 µM)
Summary of the method: as §1

Vandetanib + Linsitinib = compound: COc1cc2/c(=N/c3ccc(Br)cc3F)nc[nH]c2cc1OCC1CCN(C)CC1 [Vandetanib] + C[C@]1(O)C[C@@H](c2nc(-c3ccc4ccc(-c5ccccc5)nc4c3)c3c(N)nccn32)C1 [Linsitinib] (partner 1 µM)
Summary of the method: as §1

SW 1573
relative viability ([1]; first compound 0.005 µM): 0.598 | relative viability ([1]; first compound 0.01581 µM): 0.782 | relative viability ([1]; first compound 0.05 µM): 0.702 | relative viability ([1]; first compound 0.1581 µM): 0.9 | relative viability ([1]; first compound 0.5 µM): 0.629 | relative viability (NVP-TAE684 + Palbociclib; first compound 0.2 µM): 0.414 | relative viability (NVP-TAE684 + Palbociclib; first compound 0.6325 µM): 0.294 | relative viability (NVP-TAE684 + Palbociclib; first compound 2 µM): 0.169 | relative viability (Vandetanib + Bortezomib; first compound 0.02 µM): 1 | relative viability (Vandetanib + Bortezomib; first compound 0.06325 µM): 0.817 | relative viability (Vandetanib + Bortezomib; first compound 0.2 µM): 1.16 | relative viability (Vandetanib + Bortezomib; first compound 0.6325 µM): 1.01 | relative viability (Vandetanib + Bortezomib; first compound 2 µM): 0.879 | relative viability (Vandetanib + Linsitinib; first compound 0.02 µM): 0.832 | relative viability (Vandetanib + Linsitinib; first compound 0.06325 µM): 0.777 | relative viability (Vandetanib + Linsitinib; first compound 0.2 µM): 0.749 | relative viability (Vandetanib + Linsitinib; first compound 0.6325 µM): 0.741 | relative viability (Vandetanib + Linsitinib; first compound 2 µM): 0.794

NCI-H1975
relative viability ([1]; first compound 0.005 µM): 0.286 | relative viability ([1]; first compound 0.01581 µM): 0.303 | relative viability ([1]; first compound 0.05 µM): 0.295 | relative viability ([1]; first compound 0.1581 µM): 0.331 | relative viability ([1]; first compound 0.5 µM): 0.26 | relative viability (NVP-TAE684 + Palbociclib; first compound 0.2 µM): 0.591 | relative viability (NVP-TAE684 + Palbociclib; first compound 0.6325 µM): 0.589 | relative viability (NVP-TAE684 + Palbociclib; first compound 2 µM): 0.37 | relative viability (Vandetanib + Bortezomib; first compound 0.02 µM): 0.359 | relative viability (Vandetanib + Bortezomib; first compound 0.06325 µM): 0.35 | relative viability (Vandetanib + Bortezomib; first compound 0.2 µM): 0.376 | relative viability (Vandetanib + Bortezomib; first compound 0.6325 µM): 0.355 | relative viability (Vandetanib + Bortezomib; first compound 2 µM): 0.383 | relative viability (Vandetanib + Linsitinib; first compound 0.02 µM): 0.902 | relative viability (Vandetanib + Linsitinib; first compound 0.06325 µM): 0.801 | relative viability (Vandetanib + Linsitinib; first compound 0.2 µM): 0.897 | relative viability (Vandetanib + Linsitinib; first compound 0.6325 µM): 0.803 | relative viability (Vandetanib + Linsitinib; first compound 2 µM): 0.902

NCI-H647
relative viability ([1]; first compound 0.005 µM): 0.165 | relative viability ([1]; first compound 0.01581 µM): 0.175 | relative viability ([1]; first compound 0.05 µM): 0.182 | relative viability ([1]; first compound 0.1581 µM): 0.179 | relative viability ([1]; first compound 0.5 µM): 0.19 | relative viability (NVP-TAE684 + Palbociclib; first compound 0.2 µM): 0.352 | relative viability (NVP-TAE684 + Palbociclib; first compound 0.6325 µM): 0.337 | relative viability (NVP-TAE684 + Palbociclib; first compound 2 µM): 0.223 | relative viability (Vandetanib + Bortezomib; first compound 0.02 µM): 0.962 | relative viability (Vandetanib + Bortezomib; first compound 0.06325 µM): 0.947 | relative viability (Vandetanib + Bortezomib; first compound 0.2 µM): 1.05 | relative viability (Vandetanib + Bortezomib; first compound 0.6325 µM): 0.817 | relative viability (Vandetanib + Bortezomib; first compound 2 µM): 0.804 | relative viability (Vandetanib + Linsitinib; first compound 0.02 µM): 1.1 | relative viability (Vandetanib + Linsitinib; first compound 0.06325 µM): 1.13 | relative viability (Vandetanib + Linsitinib; first compound 0.2 µM): 1.08 | relative viability (Vandetanib + Linsitinib; first compound 0.6325 µM): 1.2 | relative viability (Vandetanib + Linsitinib; first compound 2 µM): 1.14

NCI-H322M
relative viability ([1]; first compound 0.005 µM): 0.608 | relative viability ([1]; first compound 0.01581 µM): 0.602 | relative viability ([1]; first compound 0.05 µM): 0.569 | relative viability ([1]; first compound 0.1581 µM): 0.582 | relative viability ([1]; first compound 0.5 µM): 0.607 | relative viability (NVP-TAE684 + Palbociclib; first compound 0.2 µM): 0.425 | relative viability (NVP-TAE684 + Palbociclib; first compound 0.6325 µM): 0.43 | relative viability (NVP-TAE684 + Palbociclib; first compound 2 µM): 0.375 | relative viability (Vandetanib + Bortezomib; first compound 0.02 µM): 1.18 | relative viability (Vandetanib + Bortezomib; first compound 0.06325 µM): 1.13 | relative viability (Vandetanib + Bortezomib; first compound 0.2 µM): 1.18 | relative viability (Vandetanib + Bortezomib; first compound 0.6325 µM): 1.13 | relative viability (Vandetanib + Bortezomib; first compound 2 µM): 1.12 | relative viability (Vandetanib + Linsitinib; first compound 0.02 µM): 0.832 | relative viability (Vandetanib + Linsitinib; first compound 0.06325 µM): 0.841 | relative viability (Vandetanib + Linsitinib; first compound 0.2 µM): 0.924 | relative viability (Vandetanib + Linsitinib; first compound 0.6325 µM): 0.846 | relative viability (Vandetanib + Linsitinib; first compound 2 µM): 0.894
